Laboratory results taken from PubChem BioAssay AID330 (DTP/NCI, 2004).
Several values for one entry are separate records, joined by “and”; a condition that tells them apart may be missing. Equal values may be shown once. Toxic doses and inconclusive results are not listed.

Tested on: P388 leukemia ip, CD2F1 mice, survival T/C
Assay: NCI In Vivo Anticancer Drug Screen. Data for tumor model P388 Leukemia (intraperitoneal) in CD2F1 (CDF1) mice
Details: endpoint: median survival time, higher = longer survival
In short: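 Mice carrying the transplanted tumor received test compound or vehicle. Survival was recorded in each group, and the value is the treated-group measurement divided by that of the vehicle-treated control group.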

[1] = dose: 50.0 mg/kg/injection, schedule: Q01DX005 (ip), vehicle: saline with Tween-80
[2] = dose: 100.0 mg/kg/injection, schedule: Q01DX005 (ip), vehicle: saline with Tween-80
[3] = dose: 200.0 mg/kg/injection, schedule: Q01DX005 (ip), vehicle: saline with Tween-80
[4] = dose: 25.0 mg/kg/injection, schedule: Q01DX009 (ip), vehicle: Klucel (hydroxypropylcellulose) (HPC)
[5] = dose: 50.0 mg/kg/injection, schedule: Q01DX009 (ip), vehicle: Klucel (hydroxypropylcellulose) (HPC)
[6] = dose: 100.0 mg/kg/injection, schedule: Q01DX009 (ip), vehicle: Klucel (hydroxypropylcellulose) (HPC)
[7] = dose: 50.0 mg/kg/injection, schedule: Q01DX009 (ip), vehicle: saline with Tween-80
[8] = dose: 100.0 mg/kg/injection, schedule: Q01DX009 (ip), vehicle: saline with Tween-80
[9] = dose: 200.0 mg/kg/injection, schedule: Q01DX009 (ip), vehicle: saline with Tween-80
[10] = dose: 60.0 mg/kg/injection, schedule: Q01DX005 (ip), vehicle: saline with Tween-80
[11] = dose: 120.0 mg/kg/injection, schedule: Q01DX005 (ip), vehicle: saline with Tween-80
[12] = dose: 240.0 mg/kg/injection, schedule: Q01DX005 (ip), vehicle: saline with Tween-80
[13] = dose: 100.0 mg/kg/injection, schedule: Q01DX009 (ip), vehicle: saline
[14] = dose: 200.0 mg/kg/injection, schedule: Q01DX009 (ip), vehicle: saline
[15] = dose: 400.0 mg/kg/injection, schedule: Q01DX009 (ip), vehicle: saline
[16] = dose: 50.0 mg/kg/injection, schedule: Q01DX005 (ip), vehicle: saline
[17] = dose: 100.0 mg/kg/injection, schedule: Q01DX005 (ip), vehicle: saline
[18] = dose: 200.0 mg/kg/injection, schedule: Q01DX005 (ip), vehicle: saline
[19] = dose: 12.5 mg/kg/injection, schedule: Q01DX009 (ip), vehicle: Klucel (hydroxypropylcellulose) (HPC)

Cc1ccc(S(=O)(=O)Oc2ccc3oc4c(CO)ccc(NCCN(C)C)c4c(=O)c3c2)cc1
T/C [1]: 97 % of control | T/C [2]: 96 % of control | T/C [3]: 96 % of control

O=[N+]([O-])OC1CCCC(O[N+](=O)[O-])c2c1n([O-])c1ccccc1[n+]2=O (stereo not given)
T/C [1]: 95 % of control | T/C [2]: 89 % of control | T/C [3]: 92 % of control

CCOC(=O)C(CC)(COCc1ccccc1)C(=O)OCC
T/C (dose: 50.0 mg/kg/injection, schedule: Q01DX009 (ip), vehicle: other): 100 % of control | T/C (dose: 100.0 mg/kg/injection, schedule: Q01DX009 (ip), vehicle: other): 100 % of control | T/C (dose: 200.0 mg/kg/injection, schedule: Q01DX009 (ip), vehicle: other): 100 % of control

OCC[Se][Se]CCO
T/C (dose: 1.25 mg/kg/injection, schedule: Q01DX009 (ip), vehicle: Klucel (hydroxypropylcellulose) (HPC)): 103 % of control | T/C (dose: 2.5 mg/kg/injection, schedule: Q01DX009 (ip), vehicle: Klucel (hydroxypropylcellulose) (HPC)): 100 % of control | T/C (dose: 5.0 mg/kg/injection, schedule: Q01DX009 (ip), vehicle: Klucel (hydroxypropylcellulose) (HPC)): 103 % of control

C=C(C)C1CC2(C)C(C)CC(O)CC2C(OC(=O)C=C(C)C)C1O (stereo not given)
T/C [4]: 93 % of control | T/C [5]: 96 % of control | T/C [6]: 97 % of control

CCOC(=O)c1ccc(N=NC2Sc3nc4ccccc4n3C2=O)cc1 (stereo not given)
T/C (dose: 7.5 mg/kg/injection, schedule: Q01DX005 (ip), vehicle: Klucel (hydroxypropylcellulose) (HPC)): 97 % of control | T/C (dose: 15.0 mg/kg/injection, schedule: Q01DX005 (ip), vehicle: Klucel (hydroxypropylcellulose) (HPC)): 92 % of control | T/C (dose: 30.0 mg/kg/injection, schedule: Q01DX005 (ip), vehicle: Klucel (hydroxypropylcellulose) (HPC)): 90 % of control

CC(CC(=O)O)(CC(=O)O)CC(=O)O
T/C [7]: 110 % of control | T/C [8]: 101 % of control | T/C [9]: 97 % of control

CC(=O)OC(C(=O)N1CC1)C(OC(C)=O)C(OC(C)=O)C(OC(C)=O)C(=O)N1CC1 (stereo not given)
T/C [4]: 217 % of control | T/C [5]: 237 % of control and 255 % of control | T/C [6]: 88 % of control

COC1SCCn2c1nc1ccccc1c2=O (stereo not given)
T/C [10]: 107 % of control | T/C [11]: 98 % of control | T/C [12]: 99 % of control

CN1CCC(OC(N)=O)CC1
T/C [13]: 100 % of control | T/C [14]: 100 % of control | T/C [15]: 104 % of control

O=NN(CCCl)C(=O)NC1CCCCC1
T/C (dose: 1.0 mg/kg/injection, schedule: Q01DX009 (ip), vehicle: saline with Tween-80): 118 % of control | T/C (dose: 4.0 mg/kg/injection, schedule: Q01DX009 (ip), vehicle: saline with Tween-80): 168 % of control | T/C (dose: 7.2 mg/kg/injection, schedule: Q04DX003 (ip), vehicle: saline + alcohol): 204 % of control | T/C (dose: 8.0 mg/kg/injection, schedule: Q01DX009 (ip), vehicle: saline with Tween-80): 218 % of control and 240 % of control | T/C (dose: 12.0 mg/kg/injection, schedule: Q04DX003 (ip), vehicle: carboxymethylcellulose (CMC)): 154 % of control | T/C (dose: 12.0 mg/kg/injection, schedule: Q04DX003 (ip), vehicle: saline + alcohol): 339 % of control | T/C (dose: 16.0 mg/kg/injection, schedule: Q01DX009 (ip), vehicle: saline with Tween-80): 272 % of control | T/C (dose: 18.0 mg/kg/injection, schedule: Q04DX003 (ip), vehicle: carboxymethylcellulose (CMC)): 190 % of control and 191 % of control | T/C (dose: 20.0 mg/kg/injection, schedule: Q04DX003 (ip), vehicle: saline + alcohol): 412 % of control | T/C (dose: 27.0 mg/kg/injection, schedule: Q04DX003 (ip), vehicle: carboxymethylcellulose (CMC)): 227 % of control and 243 % of control | T/C (dose: 33.3 mg/kg/injection, schedule: Q04DX003 (ip), vehicle: saline + alcohol): 119 % of control | T/C (dose: 40.0 mg/kg/injection, schedule: Q04DX003 (ip), vehicle: carboxymethylcellulose (CMC)): 304 % of control and 538 % of control | T/C (dose: 64.0 mg/kg/injection, schedule: Q01DX001 (ip), vehicle: saline + alcohol): 250 % of control and 265 % of control | T/C (dose: 128.0 mg/kg/injection, schedule: Q01DX001 (ip), vehicle: saline + alcohol): 168 % of control

O=C1CS(=O)(=O)C(c2ccccc2)N1N1C(=O)CS(=O)(=O)C1c1ccccc1 (stereo not given)
T/C [1]: 104 % of control | T/C [2]: 104 % of control | T/C [3]: 92 % of control

CC(CN(C)C)OC(=O)c1ccc(Cl)cc1Cl (stereo not given)
T/C [16]: 100 % of control | T/C [17]: 98 % of control | T/C [18]: 100 % of control

COC(=O)C1CCC2c3ccccc3C(C1)c1ccccc12 (stereo not given)
T/C [8]: 90 % of control | T/C (dose: 100.0 mg/kg/injection, schedule: Q04DX003 (ip), vehicle: saline with Tween-80): 90 % of control | T/C [9]: 118 % of control | T/C (dose: 200.0 mg/kg/injection, schedule: Q04DX003 (ip), vehicle: saline with Tween-80): 100 % of control | T/C (dose: 400.0 mg/kg/injection, schedule: Q01DX009 (ip), vehicle: saline with Tween-80): 118 % of control | T/C (dose: 400.0 mg/kg/injection, schedule: Q04DX003 (ip), vehicle: saline with Tween-80): 100 % of control

[O-][n+]1cccc(O)c1
T/C (dose: 25.0 mg/kg/injection, schedule: Q01DX009 (ip), vehicle: saline): 100 % of control and 102 % of control | T/C (dose: 50.0 mg/kg/injection, schedule: Q01DX009 (ip), vehicle: saline): 102 % of control and 108 % of control | T/C [13]: 102 % of control and 92 % of control | T/C [14]: 100 % of control and 108 % of control | T/C [15]: 103 % of control and 97 % of control | T/C (dose: 600.0 mg/kg/injection, schedule: Q01DX009 (ip), vehicle: saline): 108 % of control and 117 % of control

CSc1nc(N(C)C)c2cnn(C3CCCCO3)c2n1 (stereo not given)
T/C (dose: 100.0 mg/kg/injection, schedule: Q04DX002 (ip), vehicle: saline with Tween-80): 97 % of control | T/C (dose: 200.0 mg/kg/injection, schedule: Q04DX002 (ip), vehicle: saline with Tween-80): 100 % of control | T/C (dose: 400.0 mg/kg/injection, schedule: Q04DX002 (ip), vehicle: saline with Tween-80): 100 % of control

Cc1ccc(S(=O)(=O)OC2C=CC(=O)C(OC(=O)c3ccccc3)C2OC(=O)c2ccccc2)cc1 (stereo not given)
T/C (dose: 50.0 mg/kg/injection, schedule: Q01DX001 (ip), vehicle: saline with Tween-80): 102 % of control | T/C (dose: 100.0 mg/kg/injection, schedule: Q01DX001 (ip), vehicle: saline with Tween-80): 100 % of control | T/C (dose: 200.0 mg/kg/injection, schedule: Q01DX001 (ip), vehicle: saline with Tween-80): 91 % of control | T/C (dose: 400.0 mg/kg/injection, schedule: Q01DX001 (ip), vehicle: saline with Tween-80): 98 % of control

Cc1ccc2c(c1)S(=O)(=O)NC2=O
T/C [10]: 95 % of control | T/C [11]: 92 % of control | T/C [12]: 95 % of control

O=c1[nH]c(=O)n(Cl)c(=O)n1Cl
T/C [5]: 116 % of control | T/C [6]: 99 % of control

C=CCn1c(NC2=C(Cl)C(=O)c3ccccc3C2=O)cc(=O)[nH]c1=O
T/C [19]: 104 % of control | T/C [4]: 98 % of control | T/C [5]: 99 % of control and 98 % of control

CSc1ccc(C(C)=O)cc1
T/C (dose: 50.0 mg/kg/injection, schedule: Q01DX009 (ip), vehicle: saline + alcohol): 100 % of control | T/C (dose: 100.0 mg/kg/injection, schedule: Q01DX009 (ip), vehicle: saline + alcohol): 102 % of control | T/C (dose: 200.0 mg/kg/injection, schedule: Q01DX009 (ip), vehicle: saline + alcohol): 100 % of control | T/C (dose: 400.0 mg/kg/injection, schedule: Q01DX009 (ip), vehicle: saline + alcohol): 104 % of control

CN(C)/C=C\c1c([N+](=O)[O-])ncn1C
T/C [1]: 99 % of control | T/C [2]: 99 % of control | T/C [3]: 97 % of control

Oc1ccc(N=Cc2ccc(OCc3ccccc3)cc2)cc1
T/C [7]: 97 % of control | T/C [8]: 93 % of control | T/C [9]: 93 % of control

COc1cc([C@@H]2c3cc4c(cc3[C@H](O)[C@@H](CO)[C@@H]2C(=O)O)OCO4)cc(OC)c1OC
T/C [16]: 90 % of control | T/C [17]: 94 % of control | T/C [18]: 93 % of control

COC(=O)/C=C/N1CCCC1
T/C (dose: 25.0 mg/kg/injection, schedule: Q01DX009 (ip), vehicle: saline with Tween-80): 101 % of control | T/C [7]: 108 % of control | T/C [8]: 101 % of control | T/C [9]: 92 % of control

CC(=O)N(C(C)=O)c1ccc(C)cc1
T/C [19]: 94 % of control | T/C [4]: 94 % of control | T/C [5]: 100 % of control

Clc1ccc(Nc2ncnc3oc(-c4ccccc4)c(-c4ccccc4)c23)cc1
T/C [10]: 100 % of control | T/C [11]: 97 % of control | T/C [12]: 90 % of control
